Reference: patent US12637461B2, “Compounds for the activation of AMPK” (PFIZER INC., priority 2022, dated 2026)

Target: T1, human AMPK α2β2γ3 (Homo sapiens, UniProt O43741+P54646+Q9UGI9)
T1 construct: expressed in transfected cells; host or cells: HEK293AD cells, MaxCyte bulk electroporation
Experiment: Primary cellular assay: γ3 associated phospho-Thr172 AMPK detection (custom pAMPK Surefire AlphaLISA) in α2β2γ3 bulk transiently transfected HEK293 cells
Type: cell-based
Conditions: activation of human AMPK α2β2γ3 (γ3 pThr172 AMPK signal) in transiently transfected HEK293 cells, 20 minutes compound incubation; for Emax: 20 min, read-out: Assay GMean Asy. Max (%); for Emax / Assay GMean Asy. Max (%): geometric mean of the asymptotic max; for EC50: geometric mean EC50, read-out: Assay GMean EC50
In short: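 Transiently co-transfected (α2/β2/γ3 plasmids, electroporation) HEK293AD cells, plated 2 days in low-glucose DMEM+10% FBS, treated 20 min with compounds (11-point half-log dilutions). Lysates read by modified AlphaLISA capturing γ3 with pThr172 antibody detection. % effect relative to 30 μM HPE and DMSO; EC50 and Emax from curve fit.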

T1 sequence (P54646 whole entry): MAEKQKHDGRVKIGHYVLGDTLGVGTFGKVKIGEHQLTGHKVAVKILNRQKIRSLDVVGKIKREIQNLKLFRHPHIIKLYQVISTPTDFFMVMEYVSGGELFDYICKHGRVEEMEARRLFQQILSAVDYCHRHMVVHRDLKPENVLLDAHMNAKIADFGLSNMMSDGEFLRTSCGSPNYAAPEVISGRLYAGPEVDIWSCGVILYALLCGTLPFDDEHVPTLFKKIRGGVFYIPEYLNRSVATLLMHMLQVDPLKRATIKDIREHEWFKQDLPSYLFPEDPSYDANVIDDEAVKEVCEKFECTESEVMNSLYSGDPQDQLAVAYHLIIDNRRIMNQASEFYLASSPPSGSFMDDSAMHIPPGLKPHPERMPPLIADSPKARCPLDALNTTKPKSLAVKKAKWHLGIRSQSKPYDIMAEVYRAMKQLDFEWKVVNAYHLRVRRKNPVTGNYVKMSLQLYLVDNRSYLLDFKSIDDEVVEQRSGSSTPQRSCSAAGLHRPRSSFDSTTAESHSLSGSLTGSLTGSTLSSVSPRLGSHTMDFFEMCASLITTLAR
T1 sequence (O43741 whole entry): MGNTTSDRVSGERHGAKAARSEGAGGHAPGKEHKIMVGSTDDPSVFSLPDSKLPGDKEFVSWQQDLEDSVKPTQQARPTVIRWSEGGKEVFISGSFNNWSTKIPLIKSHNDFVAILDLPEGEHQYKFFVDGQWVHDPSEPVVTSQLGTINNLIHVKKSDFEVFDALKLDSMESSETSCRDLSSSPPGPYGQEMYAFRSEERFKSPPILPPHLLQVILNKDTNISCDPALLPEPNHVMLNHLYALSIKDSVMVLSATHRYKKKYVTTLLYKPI
T1 sequence (Q9UGI9 whole entry): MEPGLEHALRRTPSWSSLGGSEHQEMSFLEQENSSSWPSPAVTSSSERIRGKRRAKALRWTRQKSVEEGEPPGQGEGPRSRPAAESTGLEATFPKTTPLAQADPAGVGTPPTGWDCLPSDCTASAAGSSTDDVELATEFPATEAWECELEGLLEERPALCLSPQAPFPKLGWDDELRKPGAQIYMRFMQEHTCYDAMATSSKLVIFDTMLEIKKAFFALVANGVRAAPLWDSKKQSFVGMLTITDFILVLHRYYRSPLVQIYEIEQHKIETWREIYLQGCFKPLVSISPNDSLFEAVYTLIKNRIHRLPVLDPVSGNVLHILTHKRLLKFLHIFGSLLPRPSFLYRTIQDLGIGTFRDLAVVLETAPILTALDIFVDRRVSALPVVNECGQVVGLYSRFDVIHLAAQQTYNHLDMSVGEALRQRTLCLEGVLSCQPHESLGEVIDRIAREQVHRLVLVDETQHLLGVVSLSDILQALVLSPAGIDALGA

Emax [%]	EC50 [nM]	Assay GMean Asy. Max (%)	SMILES
92.9	256	–	C[C@]1(c2cccc(Cl)c2F)CN(c2ccccc2F)C(=O)c2cnc(NC3CN(C(=O)[C@@H]4C[C@@H]4F)C3)c(F)c21 [compound 56, (4R)-4-(3-chloro-2-fluorophenyl)-5-fluoro-6-({1-[(1S,2S)-2-fluorocyclopropane-1-carbonyl]azetidin-3-yl}amino)-2-(2-fluorophenyl)-4-methyl-3,4-dihydro-2,7-naphthyridin-1(2H)-one]
–	21.3	89.6	Cn1cc(F)c(N2C[C@](C)(c3cccc(Cl)c3F)c3c(cnc(NC4CN(C(=O)C(C)(O)C5CC5)C4)c3F)C2=O)n1 (single isomer, unassigned) [Example 10]
84.9	75	–	CC(C)(O)C(=O)N1CC(Nc2ncc3c(c2F)[C@@](C)(c2cccc(Cl)c2F)CN(c2ccc(CO)cn2)C3=O)C1 [compound 57, (4R)-4-(3-chloro-2-fluorophenyl)-5-fluoro-6-{[1-(2-hydroxy-2-methylpropanoyl)azetidin-3-yl]amino}-2-[5-(hydroxymethyl)pyridin-2-yl]-4-methyl-3,4-dihydro-2,7-naphthyridin-1(2H)-one]
81.7	29.9	–	Cn1cc(F)c(N2C[C@](C)(c3cccc(Cl)c3F)c3c(cnc(NC4CN(C(=O)[C@@H]5C[C@@H]5F)C4)c3F)C2=O)n1 [Example 2, (4R)-4-(3-chloro-2-fluorophenyl)-5-fluoro-6-({1-[(1S,2S)-2-fluorocyclopropane-1-carbonyl]azetidin-3-yl}amino)-2-(4-fluoro-1-methyl-1H-pyrazol-3-yl)-4-methyl-3,4-dihydro-2,7-naphthyridin-1(2H)-one]
47.6	183	–	CC1(c2cccc(Cl)c2F)CN(c2ncccc2F)C(=O)c2cnc(NC3CN(C(=O)CO)C3)nc21 (single isomer, unassigned) [Example 26, 8-(3-Chloro-2-fluorophenyl)-6-(3-fluoropyridin-2-yl)-2-{[1-(hydroxyacetyl)azetidin-3-yl]amino}-8-methyl-7,8-dihydropyrido[4,3-d]pyrimidin-5(6H)-one]
91	131	–	C[C@]1(c2cccc(Cl)c2F)CN(c2ccc([C@@H]3COCCN3)cc2)C(=O)c2cnc(NC3CN(C(=O)[C@@H]4C[C@@H]4F)C3)c(F)c21 [compound 53, (4R)-4-(3-chloro-2-fluorophenyl)-5-fluoro-6-({1-[(1S,2S)-2-fluorocyclopropane-1-carbonyl]azetidin-3-yl}amino)-4-methyl-2-{4-[(3R)-morpholin-3-yl]phenyl}-3,4-dihydro-2,7-naphthyridin-1(2H)-one]
123	> 1060	–	CC1(c2cccc(Cl)c2F)CN(c2ncccc2F)C(=O)c2cnc(NC3CN(C(=O)[C@@H]4C[C@@H]4F)C3)nc21 (single isomer, unassigned) [compound 81]
–	47.6	80.4	CN1CCC(N2CC(Nc3ncc4c(c3F)[C@@](C)(c3cccc(Cl)c3F)CN(c3nn(C)cc3F)C4=O)C2)C1=O (single isomer, unassigned) [compound 70]
48.6	53.5	–	Cn1cc(C(=O)N2CC(Nc3ncc4c(c3F)[C@@](C)(c3cccc(Cl)c3F)CN(c3ccc(CO)cn3)C4=O)C2)nn1 [compound 60, (4R)-4-(3-chloro-2-fluorophenyl)-5-fluoro-2-[5-(hydroxymethyl)pyridin-2-yl]-4-methyl-6-{[1-(1-methyl-1H-1,2,3-triazole-4-carbonyl)azetidin-3-yl]amino}-3,4-dihydro-2,7-naphthyridin-1(2H)-one]
111	86.1	–	COCC(C)(O)C(=O)N1CC(Nc2ncc3c(c2F)C(C)(c2cccc(Cl)c2F)CN(c2nn(C)cc2F)C3=O)C1 (single isomer, unassigned) [compound 46]
